IC50 data for 94 compounds are collected here from PubChem BioAssay AID602166 (The Scripps Research Institute Molecular Screening Center, 2012).

pIC50: −log10 of the molar value. Calls of active or inactive are those of the source. How the calls were made is not given here.

Nuclear receptor coactivator 3 (Homo sapiens), sequence (Q9Y6Q9 whole entry, looked up): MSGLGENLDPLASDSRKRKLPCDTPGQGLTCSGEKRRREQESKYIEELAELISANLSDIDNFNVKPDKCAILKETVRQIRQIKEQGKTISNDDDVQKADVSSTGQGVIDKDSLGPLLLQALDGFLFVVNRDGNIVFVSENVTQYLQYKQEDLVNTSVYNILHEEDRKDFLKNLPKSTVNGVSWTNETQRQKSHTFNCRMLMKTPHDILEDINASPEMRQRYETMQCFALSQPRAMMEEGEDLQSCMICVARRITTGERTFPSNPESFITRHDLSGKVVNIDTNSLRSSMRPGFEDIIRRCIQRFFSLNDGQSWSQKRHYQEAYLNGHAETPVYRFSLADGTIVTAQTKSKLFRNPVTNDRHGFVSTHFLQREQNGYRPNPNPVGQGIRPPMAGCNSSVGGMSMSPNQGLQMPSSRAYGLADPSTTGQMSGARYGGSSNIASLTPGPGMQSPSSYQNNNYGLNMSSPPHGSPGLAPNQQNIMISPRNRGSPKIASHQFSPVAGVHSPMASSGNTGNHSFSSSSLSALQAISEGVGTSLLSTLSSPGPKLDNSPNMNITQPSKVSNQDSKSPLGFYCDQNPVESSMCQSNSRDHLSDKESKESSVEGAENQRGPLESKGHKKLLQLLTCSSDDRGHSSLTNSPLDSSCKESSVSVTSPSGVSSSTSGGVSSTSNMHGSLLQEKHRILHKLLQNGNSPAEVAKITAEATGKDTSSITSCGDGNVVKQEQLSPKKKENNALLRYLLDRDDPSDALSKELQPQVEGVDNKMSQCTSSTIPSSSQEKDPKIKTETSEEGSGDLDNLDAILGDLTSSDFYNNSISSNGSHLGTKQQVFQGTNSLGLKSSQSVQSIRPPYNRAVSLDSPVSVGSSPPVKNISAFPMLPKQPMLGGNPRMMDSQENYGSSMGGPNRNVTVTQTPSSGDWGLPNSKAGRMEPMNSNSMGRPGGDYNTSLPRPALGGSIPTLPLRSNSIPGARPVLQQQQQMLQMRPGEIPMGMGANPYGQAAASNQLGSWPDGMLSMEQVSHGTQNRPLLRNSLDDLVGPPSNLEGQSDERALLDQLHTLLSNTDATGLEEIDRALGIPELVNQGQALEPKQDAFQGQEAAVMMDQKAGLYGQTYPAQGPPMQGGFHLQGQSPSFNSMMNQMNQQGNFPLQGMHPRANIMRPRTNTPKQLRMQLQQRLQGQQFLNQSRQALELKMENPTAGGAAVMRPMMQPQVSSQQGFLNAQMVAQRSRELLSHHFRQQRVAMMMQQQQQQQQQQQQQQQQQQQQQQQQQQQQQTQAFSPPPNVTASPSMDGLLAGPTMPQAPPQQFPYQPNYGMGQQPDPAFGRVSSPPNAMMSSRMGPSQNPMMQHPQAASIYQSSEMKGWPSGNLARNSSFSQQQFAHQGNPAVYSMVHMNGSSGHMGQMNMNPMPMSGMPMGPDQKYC

This assay concerns the target Nuclear receptor coactivator 3 (Homo sapiens) (UniProt Q9Y6Q9). Briefly: NCOA3 reporter inhibition potency – cell-based, luminescence, dose response (AID 602166).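 Further: potency for reduction of SRC3 reporter signal so compounds are inhibitors.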 To be noted: SRC3 luciferase reporter cell assay.
With `COc1ccc(OC)c(N/C=C/C(=O)c2ccccc2)c1`, the IC50 entry is “inactive”.

In the case of `Cc1nc2c(-c3ccc(Cl)cc3)cnn2c(N)c1-c1ccc(F)cc1`, the IC50 was > 35.9 µM (inactive).

`Nc1ccc(-c2cc3ccccc3oc2=O)cc1`: the negative-log IC50 (pIC50) is 5.08.

As to `c1csc(Cc2nn3c(-c4ccncc4)nnc3s2)c1`, the negative-log IC50 (pIC50) is 5.09.

Take `Cc1ccc(N=Nc2ccc3ccccc3c2O)cc1`: the IC50 is > 35.9 µM (inactive).

As for `NC(=O)c1cc(Sc2ccccc2)nc2ccccc12`, the negative logarithm of the IC50 (pIC50) is 5.45.

On to `CC(C)(C)C(=O)Nc1ccc(N=Nc2ccccc2)cc1`, for which the IC50 is > 35.9 µM (inactive).

For the compound `COC(=O)c1cccc2c1-c1ccccc1/C2=N/O`, the negative logarithm of the IC50 (pIC50) is 5.63.

As for `CCOC(=O)CC(=O)CSc1nccc(-c2cccnc2)n1`, the IC50 result was “inactive”.

`c1ccc(-c2noc(-c3ccc4ccccc4c3)n2)nc1`: the negative logarithm of the IC50 (pIC50) is 5.06.

As for `COc1ccccc1N(C(=O)CCl)c1cn(C(C)=O)c2ccccc12`, the pIC50 was 5.09.

Take `CC(=O)Nc1ccc(SCC(=O)c2cc(C)n(-c3ccccc3)c2C)cc1`: the IC50 is > 35.9 µM (inactive).

Turning to `Cc1cccc(C)c1NS(=O)(=O)c1ccc(-c2cnc(C3CC3)o2)cc1`, the IC50 entry is “inactive”.

Take `O=c1[nH]c2ccccc2n1C1CCN(C(c2cc3ccccc3o2)c2nnnn2Cc2ccccc2)CC1` (centres undefined): the IC50 entry is “inactive”.

On to `Nc1nc2c(nnn2C2CC(O)C(CO)O2)c(=O)[nH]1` (centres undefined), for which the negative-log IC50 (pIC50) is 5.10.

As to `COc1cccc(F)c1C(C[N+](=O)[O-])c1c(N)n(C)c(=O)n(C)c1=O` (centres undefined), the IC50 entry was “inactive”.

Take `O=C(NCc1ccccc1)c1c(Cl)nc(Cl)c(Cl)c1Cl`: the IC50 entry was “inactive”.

`COC(=O)c1c(C)n(-c2ccc(OC)cc2)c2ccc(O)cc12`: the pIC50 is 5.40.

For the compound `O=S(=O)(c1ccc(F)cc1)c1snnc1-c1ccccc1`, the IC50 result was “inactive”.

`O=C(Nc1nc2ccccc2s1)C1c2ccccc2Oc2ccccc21`: the pIC50 is 5.10.

As for `C(=NNc1ccc2ccccc2n1)c1ccccn1`, the IC50 result is “inactive”.

In the case of `CCOc1ccc(-c2cc(C)n3nc(C(N)=O)cc3n2)cc1`, the negative logarithm of the IC50 (pIC50) is 5.11.

For `O=C(N/N=C(\c1ccccc1)c1ccccn1)c1ccccc1Cl`, the IC50 result was “inactive”.

As for `CC1(C)N=C(N)N=C(N)N1CCCCc1ccccc1`, the pIC50 is 5.40.

For the compound `Cc1sc2ncnc(N3CCC(C(=O)Nc4ccccc4C(C)(C)C)CC3)c2c1C`, the negative-log IC50 (pIC50) was 5.24.

Regarding `CCCC(=O)NC(c1ccc(Cl)cc1)c1ccc2cccnc2c1O` (centres undefined), the negative logarithm of the IC50 (pIC50) was 5.33.

For `COC(=O)c1cc(S(=O)(=O)NCCc2ccc(Cl)cc2)c[nH]1`, the pIC50 is 5.24.

As to `COc1cccc(-c2nnc3sc(C4CCCCC4)nn23)c1`, the pIC50 was 5.76.

On to `CC[C@@]1(O)C(=O)OCc2c1cc1n(c2=O)Cc2cc3c(NC(=O)CN)cccc3nc2-1`, for which the pIC50 is 5.76.

Take `Cc1c(CC(=O)NCCCC(=O)O)c(=O)oc2cc3c(cc12)CCC(C)(C)O3`: the negative logarithm of the IC50 (pIC50) was 5.12.

Consider `Cc1ccc2nc(-c3ccncc3)c(NC3CCCC3)n2c1`, for which the IC50 entry is “inactive”.

On to `Cc1ncc(CO)c(/C=N/NC(=O)c2cc3c(s2)CCCC3)c1O`, for which the pIC50 was 5.15.

`O=C(NCCCn1ccnc1)c1ccc(N2CCCCCC2)c([N+](=O)[O-])c1`: the IC50 entry is “inactive”.

For `O=C(OCCC12CC3CC(CC(C3)C1)C2)c1ccc(NCc2cc(O)ccc2O)cc1`, the pIC50 was 5.36.

`C=CCn1c(C)cc(C(=O)COc2ccc(C)nc2[N+](=O)[O-])c1C`: the IC50 was > 35.9 µM (inactive).

With `CC(=O)NC(c1cc(Cl)c2cccnc2c1O)C(C)C` (centres undefined), the negative logarithm of the IC50 (pIC50) is 5.34.

With `O=C(Nc1ccc(OCC(=O)N2CCOCC2)cc1)c1cncc(Br)c1`, the pIC50 was 5.35.

Consider `Cc1cc(C(=O)CN2C(=O)c3ccccc3S2(=O)=O)c(C)n1C(C)C`, for which the IC50 entry is “inactive”.

In the case of `O=c1[nH]c2ccccc2n1C1CCN(C(c2cccc3ccccc23)c2nnnn2-c2ccc3c(c2)OCCO3)CC1` (centres undefined), the IC50 result is “inactive”.

For the compound `Nc1nc(CCl)nc(Nc2cccc3ccccc23)n1`, the IC50 entry was “inactive”.

As to `CC(=O)c1ccc(Nc2c3c(nc4ccccc24)CCCC3)cc1`, the IC50 result is “inactive”.

In the case of `Cc1ccc(/C=C2/SC(=S)N(CCCC(=O)Nc3ccc(O)cc3)C2=O)cc1`, the pIC50 is 5.19.

Regarding `CS(=O)(=O)c1ccc(Sc2nc3ccccc3s2)c([N+](=O)[O-])c1`, the IC50 is > 35.9 µM (inactive).

Regarding `COc1cc(C2c3cc4c(cc3C(OC3OC5COC(c6cccs6)OC5C(O)C3O)C3COC(=O)C23)OCO4)cc(OC)c1O` (centres undefined), the pIC50 is 7.03.

For the compound `O=c1[nH]c2ccccc2n1C1CCN(C(c2ccccc2)c2nnnn2Cc2ccccc2)CC1` (centres undefined), the IC50 entry is “inactive”.

Take `O=C(CC1CS(=O)(=O)CC1CC(=O)Nc1ccc2c(c1)OCCO2)Nc1ccc2c(c1)OCCO2` (centres undefined): the IC50 is > 35.9 µM (inactive).

Take `Nc1nc(=S)c2ncn([C@@H]3O[C@H](CO)[C@@H](O)[C@H]3O)c2[nH]1`: the pIC50 is 5.59.

For the compound `COc1cccc(NC(=O)CSc2nnc(-c3cc(C)n(-c4ccccc4)c3C)o2)c1`, the IC50 is > 35.9 µM (inactive).

For the compound `COc1cc2[nH]c3c(Cl)ncnc3c2cc1OC`, the IC50 is > 35.9 µM (inactive).

Take `c1ccc2c(c1)Nc1ccncc1S2`: the IC50 result was “inactive”.

With `CCc1nc(N)nc(N)c1-c1ccc(Cl)c([N+](=O)[O-])c1`, the pIC50 is 5.37.

As to `O=C(OCc1ccccc1)c1ccc(NCc2cc(O)ccc2O)cc1`, the IC50 result is “inactive”.

Consider `COc1cc2c(c(OC)c1OC)-c1ccc(SC)c(=O)cc1C(NC=O)CC2` (centres undefined), for which the IC50 result was “inactive”.

Turning to `COc1cc(/C=C(/C(=O)c2cccs2)c2nc3ccccc3[nH]2)cc(OC)c1O`, the IC50 is > 35.9 µM (inactive).

As for `CCCCC(=O)NC(c1ccc(Cl)cc1Cl)c1ccc2cccnc2c1O` (centres undefined), the pIC50 was 5.33.

`NC(=S)NN=Cc1nccc2c(N)cccc12`: the negative logarithm of the IC50 (pIC50) is 5.62.

Consider `Cc1nc([N+](=O)[O-])c(Sc2nc3ccccc3n2C)n1Cc1ccccc1`, for which the IC50 entry is “inactive”.

`COc1cc2c(cc1OC)C(C)N(C(=O)c1cccc([N+](=O)[O-])c1)CC2` (centres undefined): the pIC50 is 5.14.

Turning to `O=C(CNc1cccc([N+](=O)[O-])c1)N/N=C/c1ccc([N+](=O)[O-])o1`, the IC50 entry was “inactive”.

With `COc1ccc(COC(=O)C2=C(C)NC(=O)NC2c2ccc(F)cc2)cc1` (centres undefined), the negative-log IC50 (pIC50) was 5.11.

Consider `COc1cc(C(=O)N/N=C(\c2ccccc2)c2ccccn2)cc(OC)c1OC`, for which the IC50 entry was “inactive”.

For the compound `COc1cc([C@@H]2c3cc4c(cc3[C@@H](O[C@@H]3O[C@@H]5CO[C@@H](C)O[C@H]5[C@H](O)[C@H]3O)[C@H]3COC(=O)[C@H]23)OCO4)cc(OC)c1O`, the pIC50 was 5.61.

Regarding `O=C(Nc1cccnc1)c1ccc(C(=O)Nc2cccnc2)cc1`, the IC50 is > 35.9 µM (inactive).

Turning to `CN(C)S(=O)(=O)c1ccc(N2CCN(S(=O)(=O)c3ccc(F)cc3)CC2)c(Cl)c1`, the pIC50 was 5.10.

As for `O=c1[nH]cnc2c1nnn2C1OC(CO)C(O)C1O` (centres undefined), the negative logarithm of the IC50 (pIC50) was 5.33.

On to `COc1cc2c(ccc3cc(OC)c(OC)c(O)c32)cc1O`, for which the IC50 result was “inactive”.

As to `CCOc1ccccc1-n1c(SCC(=O)Nc2ccccc2C(=O)O)nc2ccccc2c1=O`, the IC50 was > 35.9 µM (inactive).

With `CN[C@H]1CCc2cc(OC)c(OC)c(OC)c2-c2ccc(OC)c(=O)cc21`, the IC50 was > 35.9 µM (inactive).

Turning to `CO[C@@]12[C@@H]3N[C@@H]3CN1C1=C(C(=O)C(N)=C(C)C1=O)[C@@H]2COC(N)=O`, the IC50 was > 35.8 µM (inactive).

`CC(=O)N1CCN(c2ncnc3ccccc23)CC1`: the pIC50 was 5.05.

For the compound `Fc1ccccc1-c1csc(=Nc2cccnc2)n1CCCn1ccnc1`, the pIC50 is 5.28.

On to `S=C(Nc1ccccc1)Nc1ccc(OCc2ccc(Cl)cc2Cl)cc1`, for which the pIC50 is 5.36.

In the case of `Cc1ccc(/C=C2\SC(=S)N(CCCC(=O)NC3CCCC3)C2=O)cc1`, the pIC50 is 5.75.

As to `O=C(CC(Nc1ccc(Cl)cc1Cl)C(=O)O)c1ccccc1` (centres undefined), the IC50 was > 35.9 µM (inactive).

Take `Cc1c(/C(O)=C2/C(=O)C(=O)N(Cc3cccnc3)C2c2ccccn2)cnn1-c1ccccc1` (centres undefined): the IC50 was > 35.9 µM (inactive).

With `Cc1ccc(N=c2c([N+](=O)[O-])nn(-c3ccc4c(c3)OCCO4)n2O)cc1F`, the negative logarithm of the IC50 (pIC50) was 5.07.

On to `O=C(Nc1nc2cc3c(cc2s1)OCCO3)C1=COCCO1`, for which the IC50 entry was “inactive”.

On to `C=CCOn1c(C)c(C(C)=O)c2c3nonc3ccc21`, for which the pIC50 was 5.38.

For the compound `O=C(NCCc1ccccc1)c1ccc2c(c1)OCCO2`, the pIC50 is 5.02.

Take `CC(C)N(c1ccccc1)c1ccc(NC(=O)CCl)cc1`: the IC50 result was “inactive”.

With `O=C(CCl)N(c1ccccc1)C1CCCCC1`, the negative logarithm of the IC50 (pIC50) was 5.06.

In the case of `C=CC[n+]1c(-c2ccc(C)cc2)csc1Nc1ccc(NC(C)=O)cc1`, the IC50 is > 35.9 µM (inactive).

As for `O=C(NC1CCCCC1)C(c1cccnc1)N(C(=O)CCl)c1cccc(Cl)c1` (centres undefined), the negative-log IC50 (pIC50) is 5.51.

Regarding `O=C(Nc1ccccc1Oc1ccccc1)c1cc([N+](=O)[O-])ccc1Cl`, the pIC50 was 5.26.

On to `C(=N\Nc1ccc2ccccc2n1)/c1ccc2c(c1)OCCO2`, for which the IC50 result was “inactive”.

On to `COc1ccc(C(C(=O)NC2CCCCC2)N(C(=O)CCl)c2ccc(Cl)cc2)cc1` (centres undefined), for which the pIC50 is 5.43.

Turning to `CC1CCN(C2=NC(=O)/C(=C/c3ccccc3F)S2)CC1`, the IC50 is > 35.9 µM (inactive).

`CS(=O)c1nc(-c2ccc(Br)cc2)cc(-c2ccccc2)c1C#N` (centres undefined): the IC50 result is “inactive”.

On to `C=CCn1c(O)c(C(C)=NCc2cc(OC)cc(OC)c2)c(=O)[nH]c1=O`, for which the negative-log IC50 (pIC50) is 5.11.

As to `Cc1ccc(NC(=O)c2cc(C)n(-c3ccccc3)c2C)cc1`, the IC50 is > 35.9 µM (inactive).

Turning to `CC(=O)Nc1ccc(SCC(=O)c2cc(C)n(-c3ccccc3F)c2C)cc1`, the IC50 is > 35.9 µM (inactive).

As for `Cc1nc(N)nc(N)c1-c1ccc(Cl)c(Cl)c1`, the negative-log IC50 (pIC50) was 5.86.

For `Cc1ccc(N(CCC#N)C(=O)CCl)cc1C`, the pIC50 was 5.06.

For `COc1ccc(C)cc1NS(=O)(=O)c1ccc(NC(=O)CN(c2cc([N+](=O)[O-])ccc2C)S(C)(=O)=O)cc1`, the IC50 result was “inactive”.
